“Also recorded” adds a separate entry of the source.

Data set [1] is described as follows: Peptide internalization and Alexa Fluor 488 efflux in neutral GUVs, confocal laser scanning microscopy. It is filed as in vitro ADME. Conditions: POPC/chol 80/20 mol% GUVs; 2 µM peptide; room temperature; up to 30 min; CLSM. As to the method: (§1) Giant unilamellar vesicles (GUVs) were obtained by the electroformation method as previously indicated. For that, 30 µL of different lipid mixtures (detailed in the Results section) were dissolved in chloroform and spread on indium tin oxide (ITO) glass slides (Sigma-Aldrich, Schnelldorf, Germany). After drying, the lipid film was gently hydrated with 200 mM sucrose dissolved in double distilled water, mixed with a fluorescent tracer, Alexa Fluor 488-maleimide (AF 488), at a concentration of 10 µM. The freshly prepared GUVs were then transferred in 180 mM glucose solution containing 20 mM Hepes, with a pH of 7.5. The samples were observed by confocal microscope at room temperature.
(§2) The experiments were performed using a confocal laser scanning microscope (Nikon Ti-E, Tokyo, Japan), equipped with LU4 Four-Laser Module with AOTF, a Plan Fluor 40x DIC M N2 objective and a DS-F1camera. An Alexa Fluor 488 tracer was excited using a line of 457–514 nm argon ion laser, TAMRA-TAT peptide with a diode laser emitting at 561 nm, and Dy647P1-peptides with a 642 nm diode laser. To observe the accumulation and internalization of peptides and the efflux of fluorescent tracers, the freshly prepared GUVs were transferred to a solution of glucose containing 2 µM fluorescently labeled peptide, to provide a homogeneous distribution of peptides to membranes. For each type of experiment, at least 10–15 GUVs with a diameter of 30–40 μm from two independent experiments were analyzed. Successive images were collected using the Nis-Elements Advanced Research imaging software (Nikon) and then quantification of fluorescence was performed using Fiji ImageJ [14]. The resulting data were then analyzed with Origin Pro 8.5 (OriginLab Corporation, Northampton, MA, USA).
(§3) For the present study, GUVs mimicking the mammalian plasma membrane were prepared as follows: POPC/cholesterol 80/20 mol%, POPC/POPE/cholesterol 50/30/20 mol% and POPC/POPS/cholesterol 50/30/20 mol%. The peptides fluorescently labeled (see Figure 1 for structure) were added at a concentration of 2 µM and the experiments were performed at room temperature.

Data set [2] is described as follows: Peptide internalization and Alexa Fluor 488 efflux in POPS GUVs, confocal laser scanning microscopy. It is filed as in vitro ADME. Conditions: room temperature; for Internalization of peptide in GUVs / Pore formation (efflux of AF 488, lytic effect): POPC/POPS/chol 50/30/20 mol% GUVs, 2 µM peptide, 30 min, CLSM; for Kint, peptide internalization rate constant: GUVs POPC/POPS/chol 50/30/20 mol%, 2 µM fluorescently labeled peptide, 180 mM glucose, 20 mM Hepes pH 7.5, CLSM fluorescence inside GUVs, fit F(t)=1−exp(−kint×t), data from three experiments averaged. On the procedure:
as §1, §2, §3
(§4) For kinetic traces, the time course of fluorescence intensity corresponding to peptides and Alexa Fluor 488 inside GUVs was measured. The data from three experiments were averaged and then fitted with a single rising exponential function to determine the values of internalization rates:F(t) = 1 − exp (−kint × t) (1) where t is time and kint is the peptide internalization rate constant.
(§5) The intensity corresponding to release of tracer Alexa Fluor 488 from GUVs in the presence of peptides was also measured to determine the efflux rates, using a single exponential decay function:F(t) = exp (−keff × t) (2) where t is time and keff is the peptide efflux rate constant.

Data set [3] in a line: TAMRA-TAT internalization and Alexa Fluor 488 efflux in GUVs with increasing cholesterol. In kind it is in vitro ADME. Conditions: 40 mol% chol (POPC/POPE/POPS/chol 30/20/10/40 mol%); CLSM. On the procedure: as §1
The experiments were performed using a confocal laser scanning microscope (Nikon Ti-E, Tokyo, Japan), equipped with LU4 Four-Laser Module with AOTF, a Plan Fluor 40x DIC M N2 objective and a DS-F1camera. […] For each type of experiment, at least 10–15 GUVs with a diameter of 30–40 μm from two independent experiments were analyzed. Successive images were collected using the Nis-Elements Advanced Research imaging software (Nikon) and then quantification of fluorescence was performed using Fiji ImageJ [14]. The resulting data were then analyzed with Origin Pro 8.5 (OriginLab Corporation, Northampton, MA, USA). […]

Data set [4] is described as follows: Peptide internalization and Alexa Fluor 488 efflux in POPE GUVs, confocal laser scanning microscopy. In kind it is in vitro ADME. As to conditions: room temperature; for Kint, peptide internalization rate constant: GUVs POPC/POPE/chol 50/30/20 mol%, 2 µM fluorescently labeled peptide, 180 mM glucose, 20 mM Hepes pH 7.5, CLSM fluorescence inside GUVs, fit F(t)=1−exp(−kint×t), data from three experiments averaged. On the procedure:
as §1, §2, §3, §4, §5

For data set [5] the following is noted: DOPS and/or DOPE containing GUVs; cited from earlier work. From the text: In GUVs that contain 30 mol% PE, all peptides internalize, but only TAT and NKCS are able to form transmembrane pores through which the fluorescent dyes Alexa Fluor 488 can pass.
[6] abbreviates: POPC/POPE/chol 50/30/20 mol% GUVs, 2 µM peptide, 30 min, CLSM.

With `CN(C)c1ccc2c(c1)Oc1cc(N(C)C)ccc1C21OC(=O)c2cc(C(=O)N[C@@H](Cc3ccc(O)cc3)C(=O)NCC(=O)N[C@@H](CCCNC(=N)N)C(=O)N[C@@H](CCCCN)C(=O)N[C@@H](CCCCN)C(=O)N[C@@H](CCCNC(=N)N)C(=O)N[C@@H](CCCNC(=N)N)C(=O)N[C@@H](CCC(N)=O)C(=O)N[C@@H](CCCNC(=N)N)C(=O)N[C@@H](CCCNC(=N)N)C(=O)N[C@@H](CCCNC(=N)N)C(=O)O)ccc21` [TAT, reference compound], the “Internalization of peptide in GUVs” value was “Neither peptide internalization nor AF 488 efflux can be observed” in data set [1] and “internalized” in data set [2]. The “Internalization of the peptide” value in data set [3] is listed as “neither the internalization of the peptide nor the efflux of the fluorescent tracer could be registered”.

For “Dy647P1-CGNKRTR [tLyP-1, Dy647P1-labeled tumor homing peptide, truncated linear form of cyclic peptide LyP-1]”, the “Efflux of Alexa Fluor 488 from GUVs” value in data set [1] was “Neither peptide internalization nor AF 488 efflux can be observed”. In data set [4], the “Kint, peptide internalization rate constant” value is reported as “(0.78 ± 0.03) × 10^−3 s^−1”. The “Efflux of AF 488 (lytic effect, pore formation)” value in data set [4] (setting [6]) is “without the release of AF 488”. In data set [2], the “Kint, peptide internalization rate constant” value was “(0.75 ± 0.27) × 10^−3 s^−1” and the “Pore formation (efflux of AF 488, lytic effect)” value was “just translocate without generating pores”.

In the case of Dy647P1-LRRISKDILTGKK [NKCS-[15-27]], in data set [1], the “Efflux of Alexa Fluor 488 from GUVs” value is listed as “Neither peptide internalization nor AF 488 efflux can be observed” and the “Internalization of peptide in GUVs” value is on record as “Neither peptide internalization nor AF 488 efflux can be observed”. Further, the “Kint, peptide internalization rate constant” value in data set [4] is “(0.20 ± 0.04) × 10^−3 s^−1”. In data set [4] (setting [6]), the “Efflux of AF 488 (lytic effect, pore formation)” value is “without the release of AF 488” and the “Internalization of peptide in GUVs” value was “internalized”. Further, in data set [2], the “Kint, peptide internalization rate constant” value is “(0.50 ± 0.23) × 10^−3 s^−1”; the “Internalization of peptide in GUVs” value was “internalized”; the “Pore formation (efflux of AF 488, lytic effect)” value was “no lytic effect; also recorded: just translocate without generating pores”.

Take nona-arginine [R9]: the Pore formation entry in data set [5] is reported as “able to form pores”.

The record behind these values is paper PMC9415903, “Confocal Laser Scanning Microscopy and Model Membranes to Study Translocation Mechanisms of Membrane Active Peptides” (Pharmaceutics, 2022).
